T1: MeaB (Methylorubrum extorquens, UniProt C5AP93)
T1 sequence (C5AP93 1-329): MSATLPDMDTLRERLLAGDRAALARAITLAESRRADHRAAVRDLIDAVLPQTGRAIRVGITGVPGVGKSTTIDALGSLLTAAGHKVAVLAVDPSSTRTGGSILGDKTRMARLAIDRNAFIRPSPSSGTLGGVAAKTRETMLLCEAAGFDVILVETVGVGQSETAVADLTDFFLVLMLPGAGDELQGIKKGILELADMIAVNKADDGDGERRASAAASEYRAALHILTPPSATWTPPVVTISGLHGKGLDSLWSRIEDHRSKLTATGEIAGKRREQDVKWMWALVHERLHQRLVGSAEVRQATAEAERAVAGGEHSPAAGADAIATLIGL


Columns and labels:
MeaB = biological target: T1, MeaB; assay: isothermal titration calorimetry; format: binding
crystal structure = biological target: the molecule itself; assay: crystal structure

Molecule	Kd (MeaB)	binding result (crystal structure)
Nc1nc2c(ncn2[C@@H]2O[C@H](COP(=O)(O)OP(=O)(O)NP(=O)(O)O)[C@@H](O)[C@H]2O)c(=O)[nH]1 [GMPPNP]	900 ± 200 nM	–
Nc1nc2c(ncn2[C@@H]2O[C@H](COP(=O)(O)OP(=O)(O)O)[C@@H](O)[C@H]2O)c(=O)[nH]1 [GDP]	1400 ± 100 nM	–
MeaB (Methylobacterium extorquens AM1), wild type (natural protein) MSATLPDMDTLRERLLAGDRAALARAITLAESRRADHRAAVRDLIDAVLPQTGRAIRVGITGVPGVGKSTTIDALGSLLTAAGHKVAVLAVDPSSTRTGGSILGDKTRMARLAIDRNAFIRPSPSSGTLGGVAAKTRETMLLCEAAGFDVILVETVGVGQSETAVADLTDFFLVLMLPGAGDELQGIKKGILELADMIAVNKADDGDGERRASAAASEYRAALHILTPPSATWTPPVVTISGLHGKGLDSLWSRIEDHRSKLTATGEIAGKRREQDVKWMWALVHERLHQRLVGSAEVRQATAEAERAVAGGEHSPAAGADAIATLIGL	–	binds
